Results taken from US12146004B2, “Polymyxin compounds and uses thereof” (priority 2014, dated 2024).
Converted amounts (≈) assume the structure as drawn. Where two headings read alike, the source gives them in different places.

Key:
Type in all cases: cell-based
Pseudomonas aeruginosa = tested on: Pseudomonas aeruginosa
Method: (§1) To evaluate the potency and spectrum of the compounds, susceptibility testing was performed against up to nine strains of each of the Gram negative pathogens, Escherichia coli, Pseudomonas aeruginosa, Klebsiella pneumoniae and Acinetobacter baumannii.
(§2) The values in Table 2 are MIC (μg/mL) against strains of E. coli, K. pneumoniae, P. aeruginosa and A. baumanii, including strains which show elevated MICs to Polymyxin.
(§3) The values in Table 2A are MIC (μg/mL).
(§4) The in vitro activity of compounds 26 and C7 (FADDI-02) against resistant bacterial strains was compared. The resistant strains included including Escherichia coli, Pseudomonas aeruginosa, Klebsiella pneumoniae and Acinetobacter baumannii strains. The data is provided in Table 2C, where the strains are identified. The values in Table 2 are MIC (μg/mL).

Klebsiella pneumoniae = tested on: Klebsiella pneumoniae
Method: as §1, §2, §3, §4

Escherichia coli = tested on: Escherichia coli
Method: as §1, §2, §3, §4

Acinetobacter baumannii = tested on: Acinetobacter baumannii
Method: as §1, §2, §3, §4

MIC P. aeruginosa CCUG 59347 (Pseudomonas aeruginosa) | MIC K. pneumoniae ATCC 13882 (Klebsiella pneumoniae) | MIC E. coli 058 (Escherichia coli) | MIC E. coli ATCC 25922 (Escherichia coli) | MIC A. baumanii ATCC BAA-747 (Acinetobacter baumannii) | Structure (SMILES) | MIC P. aeruginosa 068 (Pseudomonas aeruginosa; strain 068) | MIC P. aeruginosa 070 (Pseudomonas aeruginosa; strain 070) | MIC P. aeruginosa ATCC 27853 (Pseudomonas aeruginosa; strain ATCC 27853) | MIC P. aeruginosa CCUG 59347 (Pseudomonas aeruginosa; strain CCUG 59347) | MIC K. pneumoniae 063 (Klebsiella pneumoniae; strain 063) | MIC K. pneumoniae 065 (Klebsiella pneumoniae; strain 065) | MIC K. pneumoniae ATCC 13882 (Klebsiella pneumoniae; strain ATCC 13882) | MIC E. coli 058 (Escherichia coli; strain 058) | MIC E. coli 061 (Escherichia coli; strain 061) | MIC E. coli ATCC 25922 (Escherichia coli; strain ATCC 25922) | MIC E. coli NCTC 9001 (Escherichia coli; strain NCTC 9001) | MIC A. baumanii 053 (Acinetobacter baumannii; strain 053) | MIC A. baumanii 056 (Acinetobacter baumannii; strain 056) | MIC A. baumanii ATCC BAA-747 (Acinetobacter baumannii; strain ATCC BAA-747) | MIC A. baumanii NCTC 13424 (Acinetobacter baumannii; strain NCTC 13424) | further results
 |  |  |  |  | CC(C)C[C@@H]1NC(=O)[C@@H](CC2CCCCC2)NC(=O)[C@H](CCN)NC(=O)[C@@H](NC(=O)[C@H](CN)NC(=O)[C@@H](NC(=O)CC(CN)C2CCCCC2)C(C)O)CCNC(=O)[C@H]([C@@H](C)O)NC(=O)[C@H](CCN)NC(=O)[C@H](CCN)NC1=O (single isomer, unassigned; isomer 1) [Example 42, 4-amino-3-cyclohexylbutanoyl L-Thr-L-Dap-polymyxin [D-cyclohexylalanine]-6 heptapeptide. Isomer 1] | 2 µg/mL (≈ 1.78 µM) | 4 µg/mL (≈ 3.56 µM) | 0.5 µg/mL (≈ 0.445 µM) | 0.5 µg/mL (≈ 0.445 µM) | 32 µg/mL (≈ 28.5 µM) | 2 µg/mL (≈ 1.78 µM) | 0.25 µg/mL (≈ 0.223 µM) | 4 µg/mL (≈ 3.56 µM) | 8 µg/mL (≈ 7.13 µM) | 0.5 µg/mL (≈ 0.445 µM) | 0.06 µg/mL (≈ 0.0535 µM) | >64 µg/mL | 32 µg/mL (≈ 28.5 µM) | 0.125 µg/mL (≈ 0.111 µM) | 0.125 µg/mL (≈ 0.111 µM) | 
0.5 µg/mL (≈ 0.434 µM) | 0.25 µg/mL (≈ 0.217 µM) | 2 µg/mL (≈ 1.74 µM) | 0.5 µg/mL (≈ 0.434 µM) | 0.125 µg/mL (≈ 0.109 µM) | CC(C)C[C@@H]1NC(=O)[C@@H](CC2CCCCC2)NC(=O)[C@H](CCN)NC(=O)[C@@H](NC(=O)[C@H](CN)NC(=O)[C@@H](NC(=O)CC(CN)c2ccc(Cl)cc2)C(C)O)CCNC(=O)[C@H]([C@@H](C)O)NC(=O)[C@H](CCN)NC(=O)[C@H](CCN)NC1=O (single isomer, unassigned; isomer 1) [Example 50, 4-amino-3-(4-chlorophenyl) butanoyl L-Thr-L-Dap-polymyxin [D-cyclohexylalanine]-6 heptapeptide. Isomer 1] |  |  |  |  |  |  |  |  |  |  |  |  |  |  |  | MIC P. aeruginosa 068 (Pseudomonas aeruginosa): 1 µg/mL (≈ 0.869 µM); MIC P. aeruginosa 070 (Pseudomonas aeruginosa): 2 µg/mL (≈ 1.74 µM); MIC P. aeruginosa ATCC 27853 (Pseudomonas aeruginosa): 0.25 µg/mL (≈ 0.217 µM); MIC K. pneumoniae 065 (Klebsiella pneumoniae): 1 µg/mL (≈ 0.869 µM); MIC E. coli 061 (Escherichia coli): 16 µg/mL (≈ 13.9 µM); MIC A. baumanii 053 (Acinetobacter baumannii): 32 µg/mL (≈ 27.8 µM); MIC A. baumanii 056 (Acinetobacter baumannii): 16 µg/mL (≈ 13.9 µM); MIC A. baumanii NCTC 13424 (Acinetobacter baumannii): 0.25 µg/mL (≈ 0.217 µM)
 |  |  |  |  | CC(C)C[C@@H]1NC(=O)[C@@H](CC2CCCCC2)NC(=O)[C@H](CCN)NC(=O)[C@@H](NC(=O)[C@H](CCN)NC(=O)[C@@H](NC(=O)CC(CN)c2ccccc2)[C@@H](C)O)CCNC(=O)[C@H]([C@@H](C)O)NC(=O)[C@H](CCN)NC(=O)[C@H](CCN)NC1=O (single isomer, unassigned; isomer 1) [Example 56, 4-amino-3-phenylbutanoyl polymyxin [D-cyclohexylalanine]-6 nonapeptide isomer 1] |  |  | 0.25 µg/mL (≈ 0.221 µM) | 0.5 µg/mL (≈ 0.442 µM) |  | 16 µg/mL (≈ 14.2 µM) | 0.25 µg/mL (≈ 0.221 µM) | 16 µg/mL (≈ 14.2 µM) |  | 0.25 µg/mL (≈ 0.221 µM) |  |  |  | 0.125 µg/mL (≈ 0.111 µM) | 0.125 µg/mL (≈ 0.111 µM) | 
 |  |  |  |  | CC(C)C[C@@H]1NC(=O)[C@@H](CC2CCCCC2)NC(=O)[C@H](CCN)NC(=O)[C@@H](NC(=O)[C@H](CN)NC(=O)[C@@H](NC(=O)CC(CN)Cc2ccccc2)[C@@H](C)O)CCNC(=O)[C@H]([C@@H](C)O)NC(=O)[C@H](CCN)NC(=O)[C@H](CCN)NC1=O (single isomer, unassigned; isomer 1) [Example 58, 4-amino-3-benzylbutanoyl L-Thr-L-Dap-polymyxin [D-cyclohexylalanine]-6 heptapeptide. Isomer 1] | 2 µg/mL (≈ 1.77 µM) | 8 µg/mL (≈ 7.08 µM) | 0.25 µg/mL (≈ 0.221 µM) | 0.25 µg/mL (≈ 0.221 µM) | 64 µg/mL (≈ 56.6 µM) | 4 µg/mL (≈ 3.54 µM) | 0.25 µg/mL (≈ 0.221 µM) | 4 µg/mL (≈ 3.54 µM) | 16 µg/mL (≈ 14.2 µM) | 0.25 µg/mL (≈ 0.221 µM) | 0.125 µg/mL (≈ 0.111 µM) | 64 µg/mL (≈ 56.6 µM) | 64 µg/mL (≈ 56.6 µM) | 0.03 µg/mL (≈ 0.0265 µM) | 0.125 µg/mL (≈ 0.111 µM) | 
1 µg/mL (≈ 0.896 µM) | 0.5 µg/mL (≈ 0.448 µM) | 16 µg/mL (≈ 14.3 µM) | 0.5 µg/mL (≈ 0.448 µM) | 0.5 µg/mL (≈ 0.448 µM) | CC(C)C[C@@H]1NC(=O)[C@@H](CC2CCCCC2)NC(=O)[C@H](CCN)NC(=O)[C@@H](NC(=O)[C@H](CN)NC(=O)[C@@H](NC(=O)CCC(N)c2ccccc2)[C@@H](C)O)CCNC(=O)[C@H]([C@@H](C)O)NC(=O)[C@H](CCN)NC(=O)[C@H](CCN)NC1=O (single isomer, unassigned; isomer 1) [Example 60, 4-amino-4-phenylbutanoyl L-Thr-L-Dap-polymyxin [D-cyclohexylalanine]-6 heptapeptide. Isomer 1] |  |  |  |  |  |  |  |  |  |  |  |  |  |  |  | MIC A. baumanii NCTC 13424 (Acinetobacter baumannii): 1 µg/mL (≈ 0.896 µM)
 |  |  |  |  | CC(C)C[C@@H]1NC(=O)[C@@H](CC2CCCCC2)NC(=O)[C@H](CCN)NC(=O)[C@@H](NC(=O)[C@H](CCN)NC(=O)[C@@H](NC(=O)CC(CN)Cc2ccccc2)[C@@H](C)O)CCNC(=O)[C@H]([C@@H](C)O)NC(=O)[C@H](CCN)NC(=O)[C@H](CCN)NC1=O (single isomer, unassigned; isomer 1) [Example 66, 4-amino-3-benzylbutanoyl polymyxin [D-cyclohexylalanine]-6 nonapeptide isomer 1] | 8 µg/mL (≈ 6.99 µM) | 32 µg/mL (≈ 28 µM) | 0.25 µg/mL (≈ 0.218 µM) | 0.5 µg/mL (≈ 0.437 µM) | 64 µg/mL (≈ 55.9 µM) | 4 µg/mL (≈ 3.5 µM) | 0.125 µg/mL (≈ 0.109 µM) | 8 µg/mL (≈ 6.99 µM) | 32 µg/mL (≈ 28 µM) | 0.125 µg/mL (≈ 0.109 µM) |  | >64 µg/mL | 64 µg/mL (≈ 55.9 µM) | 0.125 µg/mL (≈ 0.109 µM) | 0.06 µg/mL (≈ 0.0524 µM) | 
0.125 µg/mL (≈ 0.106 µM) | 0.125 µg/mL (≈ 0.106 µM) | 2 µg/mL (≈ 1.69 µM) | 0.06 µg/mL (≈ 0.0508 µM) | 0.125 µg/mL (≈ 0.106 µM) | CC(C)C[C@@H]1NC(=O)[C@@H](CC2CCCCC2)NC(=O)[C@H](CCN)NC(=O)[C@@H](NC(=O)[C@H](CN)NC(=O)[C@@H](NC(=O)C(CCN)OCc2cccc(Cl)c2)[C@@H](C)O)CCNC(=O)[C@H]([C@@H](C)O)NC(=O)[C@H](CCN)NC(=O)[C@H](CCN)NC1=O (single isomer, unassigned; isomer 1) [Example 82, 4-amino-2-((3-chlorobenzyl)oxy) butanoyl L-Thr-L-Dap-polymyxin [D-cyclohexylalanine-6]heptapeptide. Isomer 1] |  |  |  |  |  |  |  |  |  |  |  |  |  |  |  | MIC P. aeruginosa 068 (Pseudomonas aeruginosa): 4 µg/mL (≈ 3.39 µM); MIC P. aeruginosa 070 (Pseudomonas aeruginosa): 8 µg/mL (≈ 6.77 µM); MIC P. aeruginosa ATCC 27853 (Pseudomonas aeruginosa): 0.125 µg/mL (≈ 0.106 µM); MIC K. pneumoniae 063 (Klebsiella pneumoniae): 32 µg/mL (≈ 27.1 µM); MIC K. pneumoniae 065 (Klebsiella pneumoniae): 2 µg/mL (≈ 1.69 µM); MIC E. coli 061 (Escherichia coli): 8 µg/mL (≈ 6.77 µM); MIC E. coli NCTC 9001 (Escherichia coli): 0.015 µg/mL (≈ 0.0127 µM); MIC A. baumanii 053 (Acinetobacter baumannii): 64 µg/mL (≈ 54.2 µM); MIC A. baumanii 056 (Acinetobacter baumannii): 16 µg/mL (≈ 13.5 µM); MIC A. baumanii NCTC 13424 (Acinetobacter baumannii): 0.03 µg/mL (≈ 0.0254 µM)
 |  |  |  |  | CC(C)C[C@@H]1NC(=O)[C@@H](CC2CCCCC2)NC(=O)[C@H](CCN)NC(=O)[C@@H](NC(=O)[C@H](CCN)NC(=O)[C@@H](NC(=O)CC(CN)C2CCCCC2)[C@@H](C)O)CCNC(=O)[C@H]([C@@H](C)O)NC(=O)[C@H](CCN)NC(=O)[C@H](CCN)NC1=O (single isomer, unassigned; isomer 1) [Example 86, 4-amino-3-cyclohexylbutanoyl polymyxin [D-cyclohexylalanine-6]nonapeptide. Isomer 1] |  | 8 µg/mL (≈ 7.04 µM) | 0.25 µg/mL (≈ 0.22 µM) | 0.5 µg/mL (≈ 0.44 µM) | >64 µg/mL | 8 µg/mL (≈ 7.04 µM) | 0.5 µg/mL (≈ 0.44 µM) | 8 µg/mL (≈ 7.04 µM) | 32 µg/mL (≈ 28.2 µM) | 0.125 µg/mL (≈ 0.11 µM) | 0.06 µg/mL (≈ 0.0528 µM) | >64 µg/mL | 64 µg/mL (≈ 56.3 µM) | 0.125 µg/mL (≈ 0.11 µM) | 0.125 µg/mL (≈ 0.11 µM) | 
 |  |  |  |  | CC(C)C[C@@H]1NC(=O)[C@@H](CC2CCCCC2)NC(=O)[C@H](CCN)NC(=O)[C@@H](NC(=O)[C@H](CCN)NC(=O)[C@@H](NC(=O)CC(CN)CC2CCCCC2)[C@@H](C)O)CCNC(=O)[C@H]([C@@H](C)O)NC(=O)[C@H](CCN)NC(=O)[C@H](CCN)NC1=O (single isomer, unassigned; isomer 1) [Example 91, 4-amino-3-(cyclohexylmethyl) butanoyl polymyxin [D-cyclohexylalanine-6]nonapeptide. Isomer 1] |  |  | 0.25 µg/mL (≈ 0.217 µM) | 0.5 µg/mL (≈ 0.435 µM) |  | 4 µg/mL (≈ 3.48 µM) | 0.25 µg/mL (≈ 0.217 µM) | 4 µg/mL (≈ 3.48 µM) |  | 0.125 µg/mL (≈ 0.109 µM) |  |  |  | 0.25 µg/mL (≈ 0.217 µM) | 0.125 µg/mL (≈ 0.109 µM) | 
